Measurements: PubChem BioAssay AID1963979 (Molecular Pharmacology Branch, DTP, NCI, 2024)

Tested on: 361931-004-R-J1-PDC multicell spheroid viability
Experiment: Anticancer human tumor 361931-004-R-J1-PDC patient-derived colon adenocarcinoma cell line growth inhibition [PI3K]
Details: for IC50: curve of first compound; for viability, T/C: stronger effect = lower value
Method in brief: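 Complex 3D spheroids (cancer cells + endothelial HUVEC + mesenchymal stem cells); drug pairs of targeted agent x inavolisib/alpelisib/duvelisib/copanlisib; half-log series from ~Cmax, max 10 microM if Cmax unknown; endpoint viability.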

[1] = second compound 0.0316 µM, first compound 0.0316 µM
[2] = second compound 0.0316 µM, first compound 0.1 µM
[3] = second compound 0.0316 µM, first compound 0.316 µM
[4] = second compound 0.0316 µM, first compound 1 µM
[5] = second compound 0.0316 µM, first compound 3.16 µM
[6] = second compound 0.0316 µM, first compound 10 µM
[7] = second compound 0.1 µM, first compound 0.0316 µM
[8] = second compound 0.1 µM, first compound 0.1 µM
[9] = second compound 0.1 µM, first compound 0.316 µM
[10] = second compound 0.1 µM, first compound 1 µM
[11] = second compound 0.1 µM, first compound 3.16 µM
[12] = second compound 0.1 µM, first compound 10 µM
[13] = second compound 0.316 µM, first compound 0.0316 µM
[14] = second compound 0.316 µM, first compound 0.1 µM
[15] = second compound 0.316 µM, first compound 0.316 µM
[16] = second compound 0.316 µM, first compound 1 µM
[17] = second compound 0.316 µM, first compound 3.16 µM
[18] = second compound 0.316 µM, first compound 10 µM
[19] = second compound 1 µM, first compound 0.0316 µM
[20] = second compound 1 µM, first compound 0.1 µM
[21] = second compound 1 µM, first compound 0.316 µM
[22] = second compound 1 µM, first compound 1 µM
[23] = second compound 1 µM, first compound 3.16 µM
[24] = second compound 1 µM, first compound 10 µM
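Also: spheroids exposed to agents for seven days before readout.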

## C[C@@H](NC(=O)c1ncnc(N)c1Cl)c1ncc(C(=O)Nc2cc(C(F)(F)F)c(Cl)cn2)s1 + CC(Nc1ncnc2nc[nH]c12)c1cc2cccc(Cl)c2c(=O)n1-c1ccccc1
Second compound 0.0316 µM
  IC50: > 10 µM
Second compound 0.1 µM
  IC50: > 10 µM
Second compound 0.316 µM
  IC50: > 10 µM
Second compound 1 µM
  IC50: > 10 µM
Second compound 3.16 µM
  IC50: > 10 µM
Second compound 10 µM
  IC50: > 10 µM
[1]
  viability, T/C: 105%
[2]
  viability, T/C: 102%
[3]
  viability, T/C: 99.2%
[4]
  viability, T/C: 94.1%
[5]
  viability, T/C: 104%
[6]
  viability, T/C: 98%
[7]
  viability, T/C: 101%
[8]
  viability, T/C: 101%
[9]
  viability, T/C: 96%
[10]
  viability, T/C: 95.3%
[11]
  viability, T/C: 104%
[12]
  viability, T/C: 94.6%
[13]
  viability, T/C: 105%
[14]
  viability, T/C: 103%
[15]
  viability, T/C: 107%
[16]
  viability, T/C: 104%
[17]
  viability, T/C: 106%
[18]
  viability, T/C: 93.7%
[19]
  viability, T/C: 98.8%
[20]
  viability, T/C: 99.9%
[21]
  viability, T/C: 107%
[22]
  viability, T/C: 103%
[23]
  viability, T/C: 106%
[24]
  viability, T/C: 91.7%
Second compound 3.16 µM, first compound 0.0316 µM
  viability, T/C: 88.6%
Second compound 3.16 µM, first compound 0.1 µM
  viability, T/C: 110%
Second compound 3.16 µM, first compound 0.316 µM
  viability, T/C: 107%
Second compound 3.16 µM, first compound 1 µM
  viability, T/C: 99.5%
Second compound 3.16 µM, first compound 3.16 µM
  viability, T/C: 107%
Second compound 3.16 µM, first compound 10 µM
  viability, T/C: 101%
Second compound 10 µM, first compound 0.0316 µM
  viability, T/C: 101%
Second compound 10 µM, first compound 0.1 µM
  viability, T/C: 96.7%
Second compound 10 µM, first compound 0.316 µM
  viability, T/C: 107%
Second compound 10 µM, first compound 1 µM
  viability, T/C: 107%
Second compound 10 µM, first compound 3.16 µM
  viability, T/C: 104%
Second compound 10 µM, first compound 10 µM
  viability, T/C: 87.7%

## C[C@@H](NC(=O)c1ncnc(N)c1Cl)c1ncc(C(=O)Nc2cc(C(F)(F)F)c(Cl)cn2)s1 + COc1c(OCCCN2CCOCC2)ccc2c3n(c(=NC(=O)c4cnc(N)nc4)nc12)CCN3
Second compound 0.00316 µM
  IC50: > 10 µM
Second compound 0.01 µM
  IC50: > 10 µM
Second compound 0.0316 µM
  IC50: > 10 µM
Second compound 0.1 µM
  IC50: 5.01 µM
Second compound 0.316 µM
  IC50: 0.213 µM
Second compound 1 µM
  IC50: < 0.0316 µM
Second compound 0.00316 µM, first compound 0.0316 µM
  viability, T/C: 108%
Second compound 0.00316 µM, first compound 0.1 µM
  viability, T/C: 101%
Second compound 0.00316 µM, first compound 0.316 µM
  viability, T/C: 108%
Second compound 0.00316 µM, first compound 1 µM
  viability, T/C: 102%
Second compound 0.00316 µM, first compound 3.16 µM
  viability, T/C: 109%
Second compound 0.00316 µM, first compound 10 µM
  viability, T/C: 89.2%
Second compound 0.01 µM, first compound 0.0316 µM
  viability, T/C: 110%
Second compound 0.01 µM, first compound 0.1 µM
  viability, T/C: 99.9%
Second compound 0.01 µM, first compound 0.316 µM
  viability, T/C: 105%
Second compound 0.01 µM, first compound 1 µM
  viability, T/C: 98%
Second compound 0.01 µM, first compound 3.16 µM
  viability, T/C: 98.4%
Second compound 0.01 µM, first compound 10 µM
  viability, T/C: 89%
[1]
  viability, T/C: 98.6%
[2]
  viability, T/C: 100%
[3]
  viability, T/C: 96.6%
[4]
  viability, T/C: 87.7%
[5]
  viability, T/C: 89.2%
[6]
  viability, T/C: 71.2%
[7]
  viability, T/C: 85.9%
[8]
  viability, T/C: 86.1%
[9]
  viability, T/C: 91.1%
[10]
  viability, T/C: 71.3%
[11]
  viability, T/C: 64.5%
[12]
  viability, T/C: 31%
[13]
  viability, T/C: 58%
[14]
  viability, T/C: 54.3%
[15]
  viability, T/C: 46.5%
[16]
  viability, T/C: 39.9%
[17]
  viability, T/C: 25.7%
[18]
  viability, T/C: 7.73%
[19]
  viability, T/C: 26.1%
[20]
  viability, T/C: 25.8%
[21]
  viability, T/C: 17.7%
[22]
  viability, T/C: 11.8%
[23]
  viability, T/C: 8.36%
[24]
  viability, T/C: 1.75%
